Reference: patent publication US7419655B2, “Skin care products” (Kimberly-Clark Worldwide, Inc., priority 2002, dated 2008)
Entries after “also recorded” stand apart in the source; their conditions may differ.

How the values were obtained:
[1] = tested on: human skin fibroblast cell line (normal human dermal fibroblasts, neonatal); experiment: Fibroblast proliferative response, 96-well Cell Titer 96 Aqueous One assay (Example 2, FIG. 2, Table 2); assay type: cell-based; conditions: for effect on cellular proliferation (in words): 5 and 10 ul, versus serum-free DMEM control, one-way ANOVA; for Mean (spectrophotometric absorbance at 490 nm) / Median (spectrophotometric absorbance at 490 nm): 28 hours incubation, n=5, Table 2
Description: A stock solution of CNA was prepared with chitosan (0.0297M) and equimolar amounts of ascorbic acid and niacinamide (0.01649M) in water. Test solutions of equimolar ascorbic acid and niacinamide (0.01649M) were prepared separately in water. All the compounds were tested at two doses, 5 and 10 ul with n=5. DMEM was used as a negative control (n=5). The proliferative response of CNA, ascorbic acid and niacinamide, on the human skin fibroblast cell line (Clonetics, Walkersville, Md., normal human dermal fibroblasts, neonatal) was measured in a 96-well assay system using serum-free DMEM (Dulbecco's Modified Eagle's Medium, Sigma Chemical Co.) as a control. Cells were seeded into 96 well plates at a concentration of 1×10^2 cells in 100 μl of DMEM containing 10% fetal bovine serum (FBS, Sigma Chemical Co., St. Louis, Mo.). Plates were incubated for 24 hours at 37° C. in a humidified 5% CO2 atmosphere. After incubation, the medium was aspirated and the wells were rinsed twice with 100 μl of serum-free DMEM. The final rinse was aspirated and 100 ul DMEM serum was added to each well before adding test compounds. All wells were incubated for 28 hours at 37° C. in a humidified, 5% CO2 atmosphere. After incubation, 20 μl of Cell Titer 96 Aqueous One Solution (Promega) was added to all wells. The plates were swirled gently and placed back in the incubator for 90 minutes and spectrophotometric absorbance was read at 490 nm. Statistical analysis of data was performed by using one-way ANOVA. P<0.05 is considered significant while P<0.001 is considered as very very significant.

[2] = tested on: human skin fibroblast cell line (normal human dermal fibroblasts, neonatal); experiment: Fibroblast proliferative response, 96-well Cell Titer 96 Aqueous One assay (Example 1, FIG. 1, Table 1); assay type: cell-based; conditions: for Mean (spectrophotometric absorbance at 490 nm) / Median (spectrophotometric absorbance at 490 nm): 28 hours incubation, n=5, Table 1; for cell growth / cell density (OD), FIG. 1: control OD about 0.6
Description: A human skin fibroblast cell line was obtained from Clonetics (Walkersville, Md., normal human dermal fibroblasts, neonatal). Stock solutions of CNA were prepared with chitosan (0.0297M, degree of deacetylation 78.8%, Vanson Inc.) and equimolar amounts of ascorbic acid and niacinamide (0.01649M, Sigma Chemical Co.) in water. Test solutions of chitosan (0.0297M) and niacinamide ascorbate (0.01649M) were separately prepared. All the compounds were tested at two doses, 5 and 10 ul with n=5. DMEM was used as a negative control (n=5). The proliferative response of CNA, chitosan and NA, on the human skin fibroblast cell was measured in a 96-well assay system using serum-free DMEM (Dulbecco's Modified Eagle's Medium, Sigma Chemical Co.) as a control. Cells were seeded into 96 well plates at a concentration of 1×10^3 cells in 100 μl of DMEM containing 10% fetal bovine serum (FBS, Sigma Chemical Co., St. Louis, Mo.). Plates were incubated for 24 hours at 37° C. in a humidified 5% CO2 atmosphere. After incubation, the medium was aspirated and the wells were rinsed twice with 100 μl of serum-free DMEM. The final rinse was aspirated and 100 ul DMEM serum was added to each well before adding test compounds. All wells were incubated for 28 hours at 37° C. in a humidified, 5% CO2 atmosphere. After incubation, 20 μl of Cell Titer 96 Aqueous One Solution (Promega) was added to all wells. The plates were swirled gently and placed back in the incubator for 90 minutes and spectrophotometric absorbance was read at 490 nm. Statistical analysis of data was performed by using one-way ANOVA. P<0.05 is considered significant while P<0.001 is considered as very very significant.

[3] = group suffix 1 (doses were 5 and 10 ul)
[4] = group suffix 2 (doses were 5 and 10 ul)

## O=C1O[C@H]([C@@H](O)CO)C(O)=C1O [Ascorbic acid, ascorbic acid]
[1]
  effect on cellular proliferation (in words): some cell proliferating activity
[1]; [3]
  Mean (spectrophotometric absorbance at 490 nm): 0.4002
  Median (spectrophotometric absorbance at 490 nm): 0.3990
[1]; [4]
  Mean (spectrophotometric absorbance at 490 nm): 0.4598
  Median (spectrophotometric absorbance at 490 nm): 0.4510

## NC(=O)c1cccnc1.O=C1O[C@H]([C@@H](O)CO)C(O)=C1O [NA, niacinamide ascorbate]
[2]; 5 and 10 ul, versus serum-free DMEM control, one-way ANOVA
  effect on fibroblast growth / proliferation (in words): appeared to inhibit cellular growth in a dose dependent manner; also recorded: appears depress fibroblast cell growth
[2]; 5 ul dose
  Mean (spectrophotometric absorbance at 490 nm): 0.5650
  Median (spectrophotometric absorbance at 490 nm): 0.5630
[2]; 5 μl
  cell growth / cell density (OD), FIG. 1: about 0.58
[2]; 10 ul dose
  Mean (spectrophotometric absorbance at 490 nm): 0.4826
  Median (spectrophotometric absorbance at 490 nm): 0.4870
[2]; 10 μl
  cell growth / cell density (OD), FIG. 1: about 0.50

## NC(=O)c1cccnc1 [Niacinamide, niacinamide]
[1]
  effect on cellular proliferation (in words): did not show any statistical difference
[1]; [3]
  Mean (spectrophotometric absorbance at 490 nm): 0.3108
  Median (spectrophotometric absorbance at 490 nm): 0.3140
[1]; [4]
  Mean (spectrophotometric absorbance at 490 nm): 0.3048
  Median (spectrophotometric absorbance at 490 nm): 0.3070
